Positions of bridges follow the written chain, without caps; N, C: chain ends. Residues, ends and D or L forms follow the SMILES beside them. Chains are numbered I, II in the order given. No end group written: not given here.
Assays:
[1] = Circular dichroism: helix content and θ222/θ208 ratio; format: physicochemical; settings: CD, peptide 8 μM; for helix content in 20% TFE: room temperature, from MRE at 222 nm; for helix content in 20% TFE / ratio θ222/θ208 in TFE: 20% TFE; for ratio θ222/θ208 in TFE / ratio θ222/θ208 in lipids / ratio θ222/θ208 in buffer: <0.8 monomeric, >1.0 oligomeric state; for ratio θ222/θ208 in lipids / helix content in DOPG/Chol: DOPG/Chol 60/40 LUVs; for ratio θ222/θ208 in lipids: P/L 0.05; for helix content in buffer: sodium phosphate 5 mM pH 7.4, room temperature, from MRE at 222 nm (Chakrabartty et al.); for helix content in DOPG/Chol: P/L 0.05, from MRE at 222 nm
Text: The circular dichroism (CD) analysis was used to reveal changes of the secondary structure with respect to the parent peptide in different experimental conditions (Figure 7). […] The helix content is probably underscored because oligomerization processes are taking place in this condition. The CD spectra were also obtained in presence of DOPG/Chol.
Figure 7 Circular dichroism spectra of gH625, gH625-H7 and gH625-G7 in buffer (A), 20% TFE (B) and DOPG/Chol 60/40 (mol/mol) LUVs (C). Peptide concentration used is 8 μM in all conditions tested and the peptide/lipid ratio is 0.05 in condition C.
The ratio of the ellipticities at 222 and 208 nm can be utilized to distinguish between monomeric and oligomeric states of helices, [49]; when the ratio θ222/θ208 is lower than 0.8, the peptide is essentially in its monomeric state, and when the ratio exceeds the value of 1.0, it is in its oligomeric state. The data reveal that in presence of TFE and of lipids, gH625 adopts an α-helical conformation with the monomer/oligomer equilibrium shifted toward the oligomeric state with a ratio θ222/θ208 of approximately 0.9 in both conditions, while in buffer the ratio decreases to 0.5 indicating a monomeric state. […] (Figure 7B,C). We repeated the experiment after centrifugation to remove eventual precipitated peptides from solution, however, the aggregates were molecular in size, and centrifugation had no effect on the spectra. The same analysis were performed on gH625-H7. The peptide adopts an α-helical conformation also in buffer, with a ratio θ222/θ208 of approximately 0.7, 0.9 and 1.2 in buffer, TFE and lipids.
CD spectra were recorded in a 1.0 or 0.1 cm quartz cell at room temperature using a Jasco J-715 spectropolarimeter. The spectra are an average of 3 consecutive scans from 260 to 195 nm, recorded with a band width of 3 nm, a time constant of 16 s, and a scan rate of 10 nm/min. Spectra were recorded and corrected for the background contributions by substracting blank samples. Mean residue ellipticities (MRE) were calculated using the expression MRE = Obsd/(lcn), where Obsd is the ellipticity measured in millidegrees, l is the path length of the cell in cm, c is the peptide concentration in mol/l, and n is the number of amino acid residues in the peptide. The peptide concentration was 8 μM both in buffer (sodium phosphate 5 mM pH 7.4) and at different percentages of TFE. Peptide samples in DOPG/Chol (60/40 mol/mol) were prepared using the following protocol[32]: all peptides were first dissolved in TFE; immediately after preparation, the peptide solution was added to an equal volume of a chloroform/methanol solution containing the appropriate lipid concentration; solutions were dried with a nitrogen gas stream and lyophilized overnight; the dry samples were rehydrated with buffer to yield a final peptide concentration of 8 μM with a P/L ratio of 0.05 and extruded. The percentage of helix was calculated from measurements of their mean residue ellipticity at 222 nm[47]. We used [ϑ]222 values of 0 and −40.000(1–2.5/n) deg cm^2 dmol^−1 per amino acid residue for 0% and 100% helicity; n is the number of amino acid residues.

[2] = Surface plasmon resonance binding to lipid bilayer, L1 chip, two-state model; settings: affinity constant of second step, K2 = ka2/kd2
Text: To investigate the mode of action of gH625-H7 and gH625-G7 and for comparisons with gH625[6], we used SPR. In a previous paper[7] we also reported the data for two control peptides: the melittin and the HIV fusion peptide (gp41-FP). Figure 6 reports the obtained sensorgrams of the binding and an increase of the RU signal intensity as a function of the peptide concentration can be observed. […] In particular, all the sensorgrams obtained for gH625[7] and gH625-G7 indicate the binding to the lipid surfaces is characterized by an initial fast association process which then slows down considerably towards the end of the peptide injection. The dissociation follows a similar trend, characterized by the signal falling rapidly at the end of injection when the peptide is no longer present and the buffer flow removes free or weekly bound peptide.
The average values for the rate constants obtained with the two-state model analysis are reported in Table 4 along with the affinity constant values (K A). The data clearly indicate the main influence on the overall binding constant of the fast association rate and slow dissociation rate of the first step.
We used a BIAcore 3000 analytical system (Biacore, Uppsala, Sweden) equipped with a L1 sensor chip which contains hydrophobic alkanethiol chains, with exposed polar head groups; a lipid bilayer was created by introducing liposomes to the chip. SUVs composed by DOPG/Chol (60/40) (80 μL, 0.5 mM) were applied to the chip surface at a flow rate of 2 μL/min. […] BSA was used as a negative control (25 μL, 50 μL/min […] in PBS) to confirm complete coverage of the nonspecific binding sites. Several sensorgrams were obtained with 30 μL of the peptide solutions injected at a flow rate of 5 μL/min, followed by PBS for 15 min to allow peptide dissociation. […]
Kinetic data were assessed through the χ^2 values, plots of the residuals from the model fitting and standard deviations. […]

## I: HGLASTLTRWAHYNALIRAFGCGKKKK-NH2 / II: HGLASTLTRWAHYNALIRAFGCGKKKK-NH2 (disulfide I:22-II:22) [gH625-H7]
[1]
  helix content in 20% TFE: approximately 20%
  ratio θ222/θ208 in TFE: approximately 0.9
  ratio θ222/θ208 in lipids: ~1.2
  ratio θ222/θ208 in buffer: approximately 0.7
  helix content in buffer: 8%
[2]
  K2: 3.89

## CC[C@H](C)[C@H](NC(=O)[C@H](CC(C)C)NC(=O)[C@H](C)NC(=O)[C@H](CC(N)=O)NC(=O)[C@H](Cc1ccc(O)cc1)NC(=O)[C@H](Cc1c[nH]cn1)NC(=O)[C@H](C)NC(=O)[C@H](Cc1c[nH]c2ccccc12)NC(=O)[C@H](CCCNC(=N)N)NC(=O)[C@@H](NC(=O)[C@H](CC(C)C)NC(=O)[C@@H](NC(=O)[C@H](CO)NC(=O)[C@H](C)NC(=O)[C@H](CC(C)C)NC(=O)CNC(=O)[C@@H](N)Cc1c[nH]cn1)[C@@H](C)O)[C@@H](C)O)C(=O)N[C@@H](CCCNC(=N)N)C(=O)N[C@@H](C)C(=O)N[C@@H](Cc1ccccc1)C(=O)NCC(=O)NCC(=O)NCC(=O)N[C@@H](CCCCN)C(=O)N[C@@H](CCCCN)C(=O)N[C@@H](CCCCN)C(=O)N[C@@H](CCCCN)C(N)=O [gH625-G7] (H-HGLASTLTRWAHYNALIRAFGGGKKKK-NH2)
[1]
  helix content in 20% TFE: 36%
  ratio θ222/θ208 in TFE: 0.7
  helix content in DOPG/Chol: 55%
  ratio θ222/θ208 in lipids: 1.0
  helix content in buffer: 7%
[2]
  K2: 5.72

## CC[C@H](C)[C@H](NC(=O)[C@H](CC(C)C)NC(=O)[C@H](C)NC(=O)[C@H](CC(N)=O)NC(=O)[C@H](Cc1ccc(O)cc1)NC(=O)[C@H](Cc1c[nH]cn1)NC(=O)[C@H](C)NC(=O)[C@H](Cc1c[nH]c2ccccc12)NC(=O)[C@H](CCCNC(=N)N)NC(=O)[C@@H](NC(=O)[C@H](CC(C)C)NC(=O)[C@@H](NC(=O)[C@H](CO)NC(=O)[C@H](C)NC(=O)[C@H](CC(C)C)NC(=O)CNC(=O)[C@@H](N)Cc1c[nH]cn1)[C@@H](C)O)[C@@H](C)O)C(=O)N[C@@H](CCCNC(=N)N)C(=O)N[C@@H](C)C(=O)N[C@@H](Cc1ccccc1)C(N)=O [gH625] (H-HGLASTLTRWAHYNALIRAF-NH2)
[1]
  helix content in 20% TFE: 22%
  ratio θ222/θ208 in TFE: approximately 0.9
  helix content in DOPG/Chol: 37%
  ratio θ222/θ208 in lipids: approximately 0.9
  ratio θ222/θ208 in buffer: 0.5
  helix content in buffer: 5%
[2]
  K2: 0.41
